# Data as given in article PMC9231376, “Membrane Permeability and Aqueous Stability Study of Linear and Cyclic Diarylheptanoids from Corylus maxima” (Pharmaceutics, 2022).
# Values joined by “and” are separate entries in the source; they are usually repeats but may differ in a detail not shown here. Equal entries are not always repeated.
# Tests used:
# [1] = Determination of aqueous stability (UHPLC-DAD, 4 h at 37 °C); type: physicochemical; settings: for Aqueous stability at all three investigated pH values (in words): pH 1.2, 6.8 and 7.4, no notable change in peak areas, no degradation products detected; for Aqueous stability pH = 1.2: compound concentration after 4 h of incubation compared to the initial value: pH 1.2 simulated gastric fluid, n = 3; for Aqueous stability pH = 6.8: compound concentration after 4 h of incubation compared to the initial value: pH 6.8 simulated intestinal fluid; for Aqueous stability pH = 6.8: compound concentration after 4 h of incubation compared to the initial value / Aqueous stability pH = 7.4: compound concentration after 4 h of incubation compared to the initial value: n = 3, * p < 0.05 vs initial; for Aqueous stability pH = 7.4: compound concentration after 4 h of incubation compared to the initial value: pH 7.4 PBS; for Significance of decrease in compound concentration (in words): paired-sample t-test, p < 0.05, pH 1.2, 6.8, 7.4
# Experimental: The aqueous solutions and buffers were prepared as follows: pH = 1.2, 1.0 g NaCl and 3.5 mL HCl dissolved in distilled water to achieve the final volume of 500.0 mL; pH = 6.8, 20.2 g Na2HPO4·7H2O and 3.4 g NaH2PO4·H2O dissolved in distilled water to achieve the final volume of 1000.0 mL, pH adjustment with 0.5 M NaOH or 0.5 M HCl; pH = 7.4, one PBS tablet (phosphate buffered saline, pH 7.4; Sigma Aldrich, St. Louis, MO, USA) dissolved in 200.0 mL of distilled water.
# With the aforementioned buffers, 10 mM dimethyl sulfoxide stock solutions of the isolated compounds were diluted 100-fold. […] For degradable compounds, the above-mentioned validated UHPLC-DAD method was used to examine the change in compound concentration. All experiments were performed in triplicates (n = 3).
# [2] = Parallel artificial membrane permeability assay for the gastrointestinal tract (PAMPA-GI); type: in vitro ADME; settings: for Papp at 4 h, 100 µM: PAMPA, read-out: log Pe PAMPA-GI (converted); for log Pe PAMPA-GI: donor pH 6.8, acceptor pH 7.4, 37 °C, 4 h, n = 9, Pe in cm/s, n.d. = not detected in the acceptor phase
# Experimental: (§1) The test solutions were prepared with dimethyl sulfoxide (DMSO) at the concentration of 10.0 mM. These were diluted with phosphate buffers (pH = 7.4 for the PAMPA-BBB and pH = 6.8 for the PAMPA-GI) to obtain the donor solutions (297.0 μL buffer + 3.0 μL DMSO solution) and filtered through Phenex-RC 15 mm, 0.2 μm syringe filters (Gen-Lab Ltd., Budapest, Hungary). A parallel artificial membrane permeability assay (PAMPA) system was used to determine the effective permeability (Pe) for the compounds of interest. Each well of the top plate (96-well polycarbonate-based filter donor plates (Multiscreen™-IP, MAIPN4510, pore size 0.45 μm; Merck, Darmstadt, Germany) was coated with 5 μL of porcine polar brain lipid extract (PBLE) solution (16.0 mg PBLE + 8.0 mg cholesterol dissolved in 600.0 μL n-dodecane) for the PAMPA-BBB and with 5 μL of the mixture of 8.0 mg phosphatidylcholine + 4.0 mg cholesterol dissolved in 300.0 μL n-dodecane for PAMPA-GI. Thereafter, 150.0 μL of the filtrate was placed on the membrane. The bottom plate (96-well PTFE acceptor plates (MultiScreen Acceptor plate, MSSACCEPTOR; Millipore, Burlington, MA, USA)), was filled with a 300.0 μL buffer solution (0.01 M PBS buffer, pH = 7.4). The donor and acceptor plates were fit, and then the sandwich system was incubated at 37 °C for 4 h in a Stat-Fax 2200. After the incubation the PAMPA plates were separated and the compound concentrations in the donor (CD(t)) and acceptor (CA(t)) solutions, as well as in the donor solution at the zero time point (CD(0)) were determined by UHPLC-DAD. The effective permeability and the membrane retention in the PAMPA-BBB (1) and the PAMPA GI (2) experiments were calculated by the following equations [12]:(1) Pe=−2.303/A(t−τSS)·(VA·VD/VA+VD)·lg[1−(VA+VD/(1−MR)·VD)×(CA(t)/CD(0))] (2) Pe=−2.303/A(t−τSS))·(1/1+ra)·lg[−ra+(1+ra/1−MR)×(CD(t)/CD(0))] where Pe is the effective permeability coefficient (cm/s), A is the filter area (0.24 cm^2), VD and VA are the volumes in the donor (0.15 cm^3) and acceptor phases (0.30 cm^3), t is the incubation time (s), τSS is the time (s) to reach steady-state (240 s), CD(t) is the concentration (mol/cm^3) of the compound in the donor phase at time t, CD(0) is the concentration (mol/cm^3) of the compound in the donor phase at time 0, MR is the estimated membrane retention factor (the estimated mole fraction of solute lost to the membrane) and ra is the sink asymmetry ratio (gradient-pH-induced), defined as (3) ra=VD/VA×Pe(A→D)/Pe(D→A) (4) MR=1−CD(t)/CD(0)−VA/VDCA(t)/CD(0)
# (§2) All experiments were performed in triplicates on three consecutive days (n = 9), caffeine standard was used as positive, while rutin as negative control. ClogP values were calculated by ChemAxon Marvin 22.3.
# [3] = Parallel artificial membrane permeability assay for the blood–brain barrier (PAMPA-BBB); type: in vitro ADME; settings: for log Pe PAMPA-BBB: donor pH 7.4, acceptor pH 7.4, 37 °C, 4 h, n = 9, Pe in cm/s, n.d. = not detected in the acceptor phase
# Experimental: as §1, §2
Structure (SMILES),Aqueous stability at all three investigated pH values (in words) [1],Aqueous stability pH = 1.2: compound concentration after 4 h of incubation compared to the initial value [1] [%],Aqueous stability pH = 6.8: compound concentration after 4 h of incubation compared to the initial value [1],Aqueous stability pH = 7.4: compound concentration after 4 h of incubation compared to the initial value [1],"Papp at 4 h, 100 µM [2] [×10⁻⁶ cm/s]",log Pe PAMPA-BBB [3],log Pe PAMPA-GI [2],Significance of decrease in compound concentration (in words) [1],Aqueous stability pH = 7.4: compound concentration after 4 h of incubation compared to the initial value ([1]; listed as 2) [%],"Papp at 4 h, 100 µM ([3]; PAMPA, pH 7.4, read-out: log Pe PAMPA-BBB (converted)) [×10⁻⁶ cm/s]"
"O=C1CCc2ccc(O)c(c2)-c2cc(ccc2O)C[C@H](O)[C@H](O)[C@H]1O [carpinontriol B (9), carpinontriol B]",stable,102.75 ± 1.09,101.51 ± 1.75%,103.28 ± 1.81%,3.24,,,,,
"COc1c2cc(c(OC)c1O)Oc1ccc(cc1)CCC(=O)C[C@H](O)/C=C\2 [giffonin F (8), giffonin F]",stable,99.97 ± 1.01,102.68 ± 2.45%,100.92 ± 2.02%,,not detected in the acceptor phase,not detected in the acceptor phase,,,
"O=C(/C=C/CCc1ccc(O)c(O)c1)CCc1ccc(O)c(O)c1 [hirsutenone (3), hirsutenone]",,99.63 ± 0.37,,83.80 ± 2.41 * %,,not detected in the acceptor phase,not detected in the acceptor phase,decreased significantly only at pH 7.4,,
"O=C(CCc1ccc(O)c(O)c1)C[C@H](CCc1ccc(O)c(O)c1)O[C@@H]1OC[C@@H](O)[C@H](O)[C@H]1O [oregonin (2), oregonin]",,98.67 ± 2.43,91.22 ± 3.01 * %,59.93 ± 2.85 * %,,not detected in the acceptor phase,not detected in the acceptor phase,significant decrease both at pH 6.8 and 7.4,59.93 ± 2.85,
"O=C(/C=C/CCc1ccc(O)cc1)CCc1ccc(O)cc1 [platyphyllenone (5), platyphyllenone]",,99.45 ± 1.05,94.98 ± 2.10% and 94.98 ± 2.10 * %,90.40 ± 1.52% and 90.40 ± 1.52 * %,12,> −6.0,greater than −5.0,significant decrease both at pH 6.8 and 7.4,,5.75
"C[C@@H]1O[C@@H](Oc2c(-c3ccc(O)c(O)c3)oc3cc(O)cc(O)c3c2=O)[C@H](O)[C@H](O)[C@H]1O [quercitrin (10), quercitrin]",stable,100.91 ± 0.53,102.35 ± 1.85%,100.75 ± 0.96%,,not detected in the acceptor phase,not detected in the acceptor phase,,,
